Measurements: PubChem BioAssay AID330 (DTP/NCI, 2004)
“And” between values parts separate entries of the source, which are not always exact repeats. Equal values may be shown once. Inconclusive results and toxic doses are left out.

Test system: P388 leukemia ip, CD2F1 mice, survival T/C
Experiment: NCI In Vivo Anticancer Drug Screen. Data for tumor model P388 Leukemia (intraperitoneal) in CD2F1 (CDF1) mice
Settings: endpoint: median survival time, higher = longer survival
How it was run: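 Mice carrying the transplanted tumor received test compound or vehicle. Survival was recorded in each group, and the value is the treated-group measurement divided by that of the vehicle-treated control group.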

[1] = dose: 12.5 mg/kg/injection, schedule: Q01DX009 (ip), vehicle: saline with Tween-80
[2] = dose: 25.0 mg/kg/injection, schedule: Q01DX009 (ip), vehicle: saline with Tween-80
[3] = dose: 50.0 mg/kg/injection, schedule: Q01DX009 (ip), vehicle: saline with Tween-80
[4] = dose: 100.0 mg/kg/injection, schedule: Q01DX009 (ip), vehicle: saline with Tween-80
[5] = dose: 200.0 mg/kg/injection, schedule: Q01DX009 (ip), vehicle: saline with Tween-80
[6] = dose: 50.0 mg/kg/injection, schedule: Q01DX009 (ip), vehicle: saline
[7] = dose: 100.0 mg/kg/injection, schedule: Q01DX009 (ip), vehicle: saline
[8] = dose: 200.0 mg/kg/injection, schedule: Q01DX009 (ip), vehicle: saline
[9] = dose: 100.0 mg/kg/injection, schedule: Q01DX005 (ip), vehicle: Klucel (hydroxypropylcellulose) (HPC)
[10] = dose: 200.0 mg/kg/injection, schedule: Q01DX005 (ip), vehicle: Klucel (hydroxypropylcellulose) (HPC)
[11] = dose: 12.5 mg/kg/injection, schedule: Q01DX009 (ip), vehicle: distilled water + Tween-80
[12] = dose: 25.0 mg/kg/injection, schedule: Q01DX009 (ip), vehicle: distilled water + Tween-80
[13] = dose: 25.0 mg/kg/injection, schedule: Q01DX009 (ip), vehicle: saline
[14] = dose: 60.0 mg/kg/injection, schedule: Q01DX005 (ip), vehicle: saline with Tween-80
[15] = dose: 120.0 mg/kg/injection, schedule: Q01DX005 (ip), vehicle: saline with Tween-80
[16] = dose: 50.0 mg/kg/injection, schedule: Q01DX005 (ip), vehicle: Klucel (hydroxypropylcellulose) (HPC)
[17] = dose: 240.0 mg/kg/injection, schedule: Q01DX005 (ip), vehicle: saline with Tween-80
[18] = dose: 50.0 mg/kg/injection, schedule: Q01DX005 (ip), vehicle: saline with Tween-80
[19] = dose: 100.0 mg/kg/injection, schedule: Q01DX005 (ip), vehicle: saline with Tween-80
[20] = dose: 200.0 mg/kg/injection, schedule: Q01DX005 (ip), vehicle: saline with Tween-80

COc1ccc(CN2CCCN(/N=C/c3c4c(O)c5c(O)c(C)c6c(c5c3O)C(=O)C(C)(O/C=C/C(OC)C(C)C(OC(C)=O)C(C)C(O)C(C)C(O)C(C)/C=C/C=C(C)C(=O)N4)O6)CC2)cc1 (centres undefined)
T/C [1]: 109 % of control | T/C [2]: 117 % of control | T/C [3]: 103 % of control and 97 % of control | T/C [4]: 100 % of control | T/C [5]: 97 % of control

CC(=O)Cc1c(-c2ccccc2)nc(=S)[nH]c1C
T/C [6]: 100 % of control and 97 % of control | T/C [7]: 91 % of control and 92 % of control | T/C [8]: 100 % of control and 94 % of control and 96 % of control

CN(C)C(=O)n1cc(Cl)c(=O)c2c3ncn(C)c3ccc21
T/C (dose: 60.0 mg/kg/injection, schedule: Q01DX005 (ip), vehicle: Klucel (hydroxypropylcellulose) (HPC)): 108 % of control | T/C [9]: 101 % of control | T/C [10]: 100 % of control

O=[N+]([O-])c1ccc(-c2csc(COc3ccccc3)n2)cc1
T/C (dose: 50.0 mg/kg/injection, schedule: Q01DX009 (ip), vehicle: gum acacia): 98 % of control | T/C (dose: 100.0 mg/kg/injection, schedule: Q01DX009 (ip), vehicle: gum acacia): 101 % of control | T/C (dose: 200.0 mg/kg/injection, schedule: Q01DX009 (ip), vehicle: gum acacia): 96 % of control

O=c1oc2ccccc2n1P(=O)(N1CCOCC1)N1CCOCC1
T/C [6]: 100 % of control | T/C [7]: 98 % of control | T/C [8]: 95 % of control

COc1ccc(-c2cc(-c3cc(-c4ccc(OC)cc4)nc(N)n3)nc(N)n2)cc1
T/C (dose: 60.0 mg/kg/injection, schedule: Q01DX005 (ip), vehicle: saline): 105 % of control | T/C (dose: 120.0 mg/kg/injection, schedule: Q01DX005 (ip), vehicle: saline): 102 % of control | T/C (dose: 240.0 mg/kg/injection, schedule: Q01DX005 (ip), vehicle: saline): 105 % of control

COC(=O)C(CSCc1ccccc1)NC(=O)CCNC(C)=O (centres undefined)
T/C [11]: 97 % of control | T/C [12]: 100 % of control | T/C (dose: 50.0 mg/kg/injection, schedule: Q01DX009 (ip), vehicle: distilled water + Tween-80): 91 % of control | T/C (dose: 100.0 mg/kg/injection, schedule: Q01DX009 (ip), vehicle: distilled water + Tween-80): 92 % of control | T/C (dose: 200.0 mg/kg/injection, schedule: Q01DX009 (ip), vehicle: distilled water + Tween-80): 91 % of control

[Cl][Fe]([Cl])([Cl])[Cl].c1ccc(C[n+]2ccccc2)cc1
T/C (dose: 6.25 mg/kg/injection, schedule: Q01DX009 (ip), vehicle: saline): 108 % of control | T/C (dose: 12.5 mg/kg/injection, schedule: Q01DX009 (ip), vehicle: saline): 104 % of control | T/C [13]: 117 % of control

C[Si](C)(C)CNCCNC[Si](C)(C)C
T/C [14]: 105 % of control | T/C [15]: 98 % of control

CCCCC(NC(C)(C)C)c1ccccc1 (centres undefined)
T/C (dose: 100.0 mg/kg/injection, schedule: Q04DX003 (ip), vehicle: saline): 97 % of control | T/C (dose: 200.0 mg/kg/injection, schedule: Q04DX003 (ip), vehicle: saline): 101 % of control | T/C (dose: 400.0 mg/kg/injection, schedule: Q04DX003 (ip), vehicle: saline): 102 % of control

COc1ccc(OC)c(C(=O)c2ccccc2C(=O)O)c1
T/C (dose: 25.0 mg/kg/injection, schedule: Q01DX005 (ip), vehicle: Klucel (hydroxypropylcellulose) (HPC)): 102 % of control | T/C [16]: 100 % of control | T/C [9]: 96 % of control

Nc1nc2c(C(=O)NCc3cccs3)nnn2c2cccc(Cl)c12
T/C [14]: 96 % of control | T/C [15]: 92 % of control | T/C [17]: 95 % of control

Cc1ccc(C)c2c1-c1ccccc1S2(=O)=O
T/C [2]: 110 % of control | T/C [3]: 111 % of control | T/C [4]: 109 % of control | T/C [5]: 102 % of control

CN1CCCN(C(c2ccccc2)c2ccc(Cl)cc2)CC1 (centres undefined)
T/C (dose: 6.25 mg/kg/injection, schedule: Q01DX009 (ip), vehicle: saline with Tween-80): 107 % of control | T/C [1]: 114 % of control and 115 % of control | T/C [2]: 107 % of control and 114 % of control | T/C [3]: 120 % of control

CCN(CC)CCCNCc1cc(-c2ccccc2)nc2ccccc12
T/C [18]: 101 % of control | T/C [19]: 100 % of control | T/C [20]: 95 % of control

COC(=O)c1ncn(C)c1O
T/C (dose: 60.0 mg/kg/injection, schedule: Q01DX005 (ip), vehicle: water): 103 % of control | T/C (dose: 120.0 mg/kg/injection, schedule: Q01DX005 (ip), vehicle: water): 113 % of control | T/C (dose: 240.0 mg/kg/injection, schedule: Q01DX005 (ip), vehicle: water): 104 % of control

Clc1c(CBr)ccc(CBr)c1Cl
T/C [1]: 100 % of control | T/C [2]: 100 % of control | T/C [3]: 115 % of control

CN1CCC(c2ccccc2)(c2ccccc2)OC1
T/C [13]: 100 % of control | T/C [6]: 100 % of control | T/C [7]: 113 % of control

CCCCCN(CCCCC)CC(O)c1c(Cl)ccc2ccccc12 (centres undefined)
T/C (dose: 12.5 mg/kg/injection, schedule: Q01DX005 (ip), vehicle: saline with Tween-80): 106 % of control | T/C (dose: 25.0 mg/kg/injection, schedule: Q01DX005 (ip), vehicle: saline with Tween-80): 103 % of control | T/C [18]: 103 % of control and 97 % of control | T/C [19]: 106 % of control | T/C [20]: 112 % of control

CC(C)NC(=O)OCC#CCOC(=O)NC(C)C
T/C [18]: 98 % of control | T/C [19]: 90 % of control | T/C [20]: 90 % of control

CNC(=O)OCc1c(COC(=O)NC)c(-c2cccc(F)c2F)n2c1CCC2
T/C [11]: 171 % of control | T/C [12]: 156 % of control and 159 % of control

CN1CCc2sccc2C(c2ccccc2)O1 (centres undefined)
T/C [16]: 112 % of control | T/C [9]: 104 % of control | T/C [10]: 113 % of control

COC(=O)CC1C(C)(C)C(=O)C2CC3=C4CC(=O)OC(c5ccoc5)C4(C)CCC3C1(C)C2=O (centres undefined)
T/C [14]: 97 % of control | T/C [15]: 92 % of control | T/C [17]: 89 % of control

C/C(NN(C)C)=C(\C#N)C(=O)/C=C/c1cccs1
T/C [14]: 105 % of control | T/C [15]: 98 % of control | T/C [17]: 96 % of control

O=[N+]([O-])c1ccc(OS(=O)(=O)/C=C/c2ccccc2)cc1
T/C (dose: 100.0 mg/kg/injection, schedule: Q01DX001 (ip), vehicle: Klucel (hydroxypropylcellulose) (HPC)): 99 % of control | T/C (dose: 200.0 mg/kg/injection, schedule: Q01DX001 (ip), vehicle: Klucel (hydroxypropylcellulose) (HPC)): 100 % of control | T/C (dose: 400.0 mg/kg/injection, schedule: Q01DX001 (ip), vehicle: Klucel (hydroxypropylcellulose) (HPC)): 94 % of control

CC(=O)Nc1cccc2c1C(=O)c1nccnc1C2=O
T/C (dose: 12.5 mg/kg/injection, schedule: Q04DX002 (ip), vehicle: Klucel + Tween-80): 99 % of control | T/C (dose: 25.0 mg/kg/injection, schedule: Q04DX002 (ip), vehicle: Klucel + Tween-80): 98 % of control | T/C (dose: 50.0 mg/kg/injection, schedule: Q04DX002 (ip), vehicle: Klucel + Tween-80): 91 % of control

COc1ccc(C(=O)C(CN(C)C)CN(C)C)c(OC)c1
T/C (dose: 7.5 mg/kg/injection, schedule: Q01DX005 (ip), vehicle: saline): 121 % of control | T/C (dose: 15.0 mg/kg/injection, schedule: Q01DX005 (ip), vehicle: saline): 108 % of control

C1=CC2C3CCC(C3)C2C1 (centres undefined)
T/C (dose: 100.0 mg/kg/injection, schedule: Q04DX003 (ip), vehicle: saline with Tween-80): 113 % of control | T/C (dose: 200.0 mg/kg/injection, schedule: Q04DX003 (ip), vehicle: saline with Tween-80): 100 % of control | T/C (dose: 400.0 mg/kg/injection, schedule: Q04DX003 (ip), vehicle: saline with Tween-80): 104 % of control

COc1ccccc1C1c2cc3c(cc2OC(C)(OC)C1C)OCO3 (centres undefined)
T/C [14]: 93 % of control | T/C [15]: 90 % of control | T/C [17]: 92 % of control

Cc1ccc(Nc2nnc(Nc3ccc(C)cn3)c3ccccc23)nc1
T/C [18]: 90 % of control | T/C [19]: 89 % of control
